# In ChEMBL document CHEMBL1201862, “PubChem BioAssay data set” (2004):
# Activity calls are given as the source filed them.
# Legend:
# [1] = target: T1, Heat shock factor protein 1 (Mus musculus, UniProt P38532); assay: decrease of HSF1-responsive luciferase luminescence – cell-based, NIH3T3, dose retest, confirmation (AID 2382); type: functional;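 note: NIH3T3 fibroblasts with HSF1-driven luciferase reporter stressed by proteasome inhibitor MG132; luminescence from HSF1-driven luciferase expression after 8 hours of MG132 stress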
# T1 sequence (P38532 whole entry): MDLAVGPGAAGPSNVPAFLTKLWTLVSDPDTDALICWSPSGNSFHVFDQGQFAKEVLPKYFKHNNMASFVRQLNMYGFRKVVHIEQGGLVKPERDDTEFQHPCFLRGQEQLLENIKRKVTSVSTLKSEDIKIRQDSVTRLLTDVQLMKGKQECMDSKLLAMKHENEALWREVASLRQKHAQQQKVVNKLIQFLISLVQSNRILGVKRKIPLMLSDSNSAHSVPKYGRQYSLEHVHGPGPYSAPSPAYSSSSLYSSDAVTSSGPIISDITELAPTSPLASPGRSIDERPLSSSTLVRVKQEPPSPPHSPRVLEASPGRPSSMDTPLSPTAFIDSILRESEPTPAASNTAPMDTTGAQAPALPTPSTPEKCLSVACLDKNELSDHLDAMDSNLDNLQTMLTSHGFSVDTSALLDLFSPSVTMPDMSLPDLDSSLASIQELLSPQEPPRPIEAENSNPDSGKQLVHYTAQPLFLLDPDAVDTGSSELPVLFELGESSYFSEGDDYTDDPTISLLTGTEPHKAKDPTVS
# [2] = Luminescence Cell-Based Dose Response HTS to Identify Inhibitors of 5'UTR Stem-Loop Driven Prion Protein mRNA Translation in H4 Neuroglioblastoma Cells. [Related pubchem assays: 1827 (Project Summary), 1813 (Primary HTS)]; type: functional
# [3] = alpha-synuclein stem-loop luciferase translation blockers – H4 neuroglioma cells, luminescence, confirmation (AID 1988); type: functional, cell-based
# [4] = luciferase reporter signal suppression in cells – H4 neuroglioma cells, luminescence, dose response (AID 1990); type: functional, cell-based
# Paired box protein Pax-8 = Paired box protein Pax-8 (Homo sapiens, UniProt Q06710); assay: PAX8 transcriptional activity inhibition in RMG-I – RMG-I cells, luciferase, cherry-pick, dose response (AID 687027); type: functional, cell-based;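 note: luciferase reporter driven by Pax8 target thyroperoxidase promoter measured by SteadyGlo luminescence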
# Paired box protein Pax-8, sequence (Q06710 whole entry): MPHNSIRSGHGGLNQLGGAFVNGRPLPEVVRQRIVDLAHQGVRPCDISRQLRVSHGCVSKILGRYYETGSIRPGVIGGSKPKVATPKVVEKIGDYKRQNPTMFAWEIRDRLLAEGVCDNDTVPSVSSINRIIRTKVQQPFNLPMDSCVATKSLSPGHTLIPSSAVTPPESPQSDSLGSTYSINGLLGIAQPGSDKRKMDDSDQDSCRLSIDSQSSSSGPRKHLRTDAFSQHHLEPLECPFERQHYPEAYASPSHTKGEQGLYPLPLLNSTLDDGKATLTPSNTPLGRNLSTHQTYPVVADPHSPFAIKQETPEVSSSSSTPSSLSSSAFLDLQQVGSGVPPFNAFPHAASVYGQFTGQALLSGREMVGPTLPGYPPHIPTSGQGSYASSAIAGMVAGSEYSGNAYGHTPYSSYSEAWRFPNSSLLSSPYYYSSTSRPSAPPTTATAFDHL
# Protein RecA = target: T2, Protein RecA (Mycobacterium tuberculosis, UniProt P9WHJ3); assay: Fluorescence Cell-Free Homogeneous Dose Retest to Identify Inhibitors of RecA-Intein Splicing Activity. [Related pubchem assays (depositor defined):AID2097, AID2223, AID489010, AID492950]; type: functional
# T2 sequence (P9WHJ3 whole entry): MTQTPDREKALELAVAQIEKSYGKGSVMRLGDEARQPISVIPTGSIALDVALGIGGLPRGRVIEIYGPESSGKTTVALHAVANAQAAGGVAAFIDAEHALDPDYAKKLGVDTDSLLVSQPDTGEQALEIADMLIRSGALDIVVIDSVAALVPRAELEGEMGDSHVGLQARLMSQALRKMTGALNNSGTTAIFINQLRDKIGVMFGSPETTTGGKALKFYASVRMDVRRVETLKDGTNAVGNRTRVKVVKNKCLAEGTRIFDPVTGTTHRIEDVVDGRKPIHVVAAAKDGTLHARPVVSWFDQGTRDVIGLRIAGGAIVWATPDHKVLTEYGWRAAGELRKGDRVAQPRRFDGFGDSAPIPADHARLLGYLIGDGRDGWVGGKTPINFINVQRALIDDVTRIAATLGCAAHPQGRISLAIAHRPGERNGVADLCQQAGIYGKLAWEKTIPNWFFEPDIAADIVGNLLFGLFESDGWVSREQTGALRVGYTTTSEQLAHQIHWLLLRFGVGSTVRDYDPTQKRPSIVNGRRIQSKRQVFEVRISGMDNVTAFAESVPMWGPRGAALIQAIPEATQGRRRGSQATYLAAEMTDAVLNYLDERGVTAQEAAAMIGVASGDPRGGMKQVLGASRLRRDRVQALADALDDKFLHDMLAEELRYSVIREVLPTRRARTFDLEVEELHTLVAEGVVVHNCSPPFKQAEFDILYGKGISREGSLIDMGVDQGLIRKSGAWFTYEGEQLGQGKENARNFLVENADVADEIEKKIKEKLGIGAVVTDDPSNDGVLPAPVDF
# [5] = target: T3, Replicative DNA helicase DnaB (Mycobacterium tuberculosis, UniProt P9WMR3); assay: DnaB intein splicing inhibitors, dose response, biochemical, cell-free fluorescence (AID 449749); type: functional
# T3 sequence (P9WMR3 whole entry): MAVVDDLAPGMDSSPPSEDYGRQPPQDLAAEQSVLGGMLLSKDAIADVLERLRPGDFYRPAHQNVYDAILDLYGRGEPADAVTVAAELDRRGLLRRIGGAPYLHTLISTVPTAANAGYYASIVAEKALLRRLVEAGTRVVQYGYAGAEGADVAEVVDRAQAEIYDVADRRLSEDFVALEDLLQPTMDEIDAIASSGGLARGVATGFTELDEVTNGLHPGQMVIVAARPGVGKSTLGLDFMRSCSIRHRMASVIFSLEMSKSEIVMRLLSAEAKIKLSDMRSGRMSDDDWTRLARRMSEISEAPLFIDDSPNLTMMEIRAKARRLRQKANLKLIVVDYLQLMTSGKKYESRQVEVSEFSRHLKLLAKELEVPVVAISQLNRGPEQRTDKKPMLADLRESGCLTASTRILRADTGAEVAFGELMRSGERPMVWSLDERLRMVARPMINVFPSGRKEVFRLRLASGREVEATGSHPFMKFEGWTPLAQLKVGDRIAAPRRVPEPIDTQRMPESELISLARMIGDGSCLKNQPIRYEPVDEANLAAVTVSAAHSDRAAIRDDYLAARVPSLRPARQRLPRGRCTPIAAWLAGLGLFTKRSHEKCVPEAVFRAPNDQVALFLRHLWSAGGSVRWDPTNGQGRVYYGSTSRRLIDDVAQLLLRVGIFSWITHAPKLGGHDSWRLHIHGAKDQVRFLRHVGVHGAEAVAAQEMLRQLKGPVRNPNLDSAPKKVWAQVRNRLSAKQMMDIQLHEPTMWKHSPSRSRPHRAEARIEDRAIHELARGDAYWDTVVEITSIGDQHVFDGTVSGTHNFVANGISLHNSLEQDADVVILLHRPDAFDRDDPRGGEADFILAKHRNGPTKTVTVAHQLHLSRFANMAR
# [6] = viability of HCT116 lacking mutant beta-catenin – cell-based, human colon tumor, dose response (AID 1045); type: functional;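 note: HCT116 colon tumor cells with beta catenin knocked out; cells exposed to compound for 60 hours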
# [7] = viability of PTEN-deleted HCT116 cells – cell-based, HCT116 PTEN knockout, dose response (AID 1047); type: functional;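 note: HCT116 colon tumor cells with PTEN knocked out; cells exposed to compound for 60 hours before readout; potency for loss of cell viability measured by luminescence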
# [8] = viability of uninfected HEp-2 cells – cell-based, HTS, cytotoxicity control for RSV inhibitor project, dose response (AID 2410); type: functional; conditions: human respiratory syncytial virus
# Cytochrome P450 2C9 = Cytochrome P450 2C9 (Homo sapiens, UniProt P11712)
# Cytochrome P450 2C9, sequence (P11712 whole entry): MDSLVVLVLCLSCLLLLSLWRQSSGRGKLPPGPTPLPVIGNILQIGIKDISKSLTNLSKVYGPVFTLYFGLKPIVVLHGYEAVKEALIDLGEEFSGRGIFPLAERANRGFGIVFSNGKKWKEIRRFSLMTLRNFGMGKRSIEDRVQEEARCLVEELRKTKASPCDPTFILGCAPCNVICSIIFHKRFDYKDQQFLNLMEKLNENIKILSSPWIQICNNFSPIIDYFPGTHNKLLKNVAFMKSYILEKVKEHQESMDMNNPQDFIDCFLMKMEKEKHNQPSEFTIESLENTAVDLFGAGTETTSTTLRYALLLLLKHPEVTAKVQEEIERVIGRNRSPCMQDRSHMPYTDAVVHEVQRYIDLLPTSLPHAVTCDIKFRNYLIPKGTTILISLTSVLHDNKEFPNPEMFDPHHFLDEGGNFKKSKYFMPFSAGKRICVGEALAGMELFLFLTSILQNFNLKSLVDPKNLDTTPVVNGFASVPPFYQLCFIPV
# Cytochrome P450 2D6 = Cytochrome P450 2D6 (Homo sapiens, UniProt P10635);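 note: CYP2D6 member of a cytochrome P450 panel assay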
# Cytochrome P450 2D6, sequence (P10635 whole entry): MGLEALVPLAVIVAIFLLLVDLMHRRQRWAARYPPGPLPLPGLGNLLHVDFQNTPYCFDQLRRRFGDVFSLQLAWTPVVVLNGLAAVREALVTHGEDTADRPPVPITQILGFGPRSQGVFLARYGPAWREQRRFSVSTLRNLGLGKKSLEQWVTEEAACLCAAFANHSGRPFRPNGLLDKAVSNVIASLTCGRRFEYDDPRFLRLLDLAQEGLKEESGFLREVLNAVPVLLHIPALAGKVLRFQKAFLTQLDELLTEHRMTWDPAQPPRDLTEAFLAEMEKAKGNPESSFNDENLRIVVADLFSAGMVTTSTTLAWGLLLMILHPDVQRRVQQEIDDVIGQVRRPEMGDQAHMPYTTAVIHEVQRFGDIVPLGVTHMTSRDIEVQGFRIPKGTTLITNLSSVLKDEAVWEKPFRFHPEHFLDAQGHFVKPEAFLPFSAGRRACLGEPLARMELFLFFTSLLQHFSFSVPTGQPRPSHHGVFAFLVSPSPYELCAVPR
# [9] = NIH3T3 cell viability loss – ATP luminescence, mouse fibroblasts, counter-screen, dose response (AID 2010); type: functional, cell-based;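 note: cells exposed to compound for about 90 hours before reading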
# [10] = Trypanosoma cruzi growth suppression in host cells – NIH3T3 host cells, beta-gal luminescence, confirmation (AID 2044); type: functional, cell-based;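 note: intracellular parasites grown in NIH/3T3 mouse fibroblasts as host cells; luminescent beta-galactosidase reporter signal from transgenic T. cruzi replicating inside host cells; inhibitors lower the luminescence signal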
# [11] = Luminescence Cell-Based Dose Retest to Confirm Inhibitors of Cancer Stem Cells. [Related pubchem assays (depositor defined):AID2717, AID2721]; type: functional; conditions: Homo sapiens
smiles,measurement,setting,value
CCc1ccc(C(=O)NC(CCSC)C(=O)OC)cc1 (stereo not drawn),EC50,[1],> 195 µM (not active)
CCOc1ccc(S(=O)(=O)N2CCCC(C(=O)NCc3cccnc3)C2)cc1C (stereo not drawn),EC50,[2],65.6 µM (active)
same,EC50,[3],19.3 µM (active)
same,EC50,[4],14.2 µM (active)
CCN1C(=O)/C(=C/Nc2ccccc2)OC1=S,EC50,[1],> 195 µM (not active)
CCC(=O)Oc1ccc2c(C)cc(=O)oc2c1C(=O)c1ccccc1,AC50,Paired box protein Pax-8,42.4 µM (active)
Cc1nn(Cc2ccccc2)c2c1C(c1ccncc1)C(C#N)=C(N)O2 (stereo not drawn),EC50,Protein RecA,3.43 µM (active)
same,AC50,[5],11.1 µM (active)
N#CC1=C(N)Oc2[nH]nc(CSc3ccccc3)c2C12C(=O)Nc1ccccc12 (stereo not drawn),EC50,[1],> 195 µM (not active)
CCN(CC)c1ccc(/C=N/n2c(S)nnc2-c2ccccc2Br)cc1,EC50,[2],> 120 µM (not active)
same,EC50,[3],> 120 µM (not active)
same,EC50,[4],> 120 µM (not active)
CCOC(=O)c1ccc(NC(=S)NC(=O)C2CCCC2)cc1,EC50,[1],> 195 µM (not active)
COC(=O)[C@H]1[C@@H](O)[C@@]2(O)c3c(OC)cc(OC)cc3O[C@@]2(c2ccc(OC)cc2)[C@@H]1c1ccc(F)cc1,AC50,Paired box protein Pax-8,0.465 µM (active)
CCNc1ccc(C(=O)N/N=C/c2c(C)nn(-c3ccccc3)c2N2CCCC2)cc1[N+](=O)[O-],EC50,[2],12.7 µM (active)
same,EC50,[3],30.6 µM (active)
same,EC50,[4],18.5 µM (active)
COCc1n[nH]c2c1C(c1ccc(OC)c(OC)c1)C(C#N)=C(N)O2 (stereo not drawn),EC50,Protein RecA,6.25 µM (active)
same,AC50,[5],9.47 µM (active)
CC1(C)CC2CC(C)(CN2C(=O)CCCN2C(=O)c3ccccc3C2=O)C1 (stereo not drawn),EC50,[1],> 195 µM (not active)
CCOc1ccccc1CNC(=O)CCn1ccc2cc(S(=O)(=O)N3CCCCC3)ccc21,EC50,[1],> 195 µM (not active)
Cc1ccc(NC(=O)COC(=O)Cn2cnc3ccccc32)cc1S(=O)(=O)N(C)C,EC50,[1],> 195 µM (not active)
Cc1c(C(=O)Nc2ccncc2)sc2nc(-c3ccc(F)cc3)cn12,EC50,[6],29.3 µM (active)
same,EC50,[7],27.9 µM (active)
same,CC50,[8],5.09 µM (active)
Cc1cc(-n2c(SCC(=O)NCc3cccs3)nc3nnc(C)c-3c2N)ccc1Cl,EC50,[2],> 120 µM (not active)
same,EC50,[3],15.3 µM (active)
same,EC50,[4],14.4 µM (active)
CCOc1ccc(CNC(c2ccccc2)c2ccccc2)cc1,EC50,[1],> 195 µM (not active)
NS(=O)(=O)c1ccc(NN=C2C(=O)NC(=S)NC2=O)cc1,EC50,Protein RecA,15.5 µM (active)
same,AC50,[5],51.7 µM (active)
CCOc1ccccc1OCCOCCOc1c(Cl)cccc1Cl,EC50,[1],> 195 µM (not active)
Nn1c(SCc2ccccc2)nnc1-c1ccco1,EC50,[1],> 195 µM (not active)
O=C(Nc1cccc(Cl)c1Cl)c1snnc1-c1ccccc1,AC50,Cytochrome P450 2C9,3.16 µM (inconclusive)
same,EC50,[1],> 195 µM (not active)
C[C@H]1CN([C@@H](C)CO)C(=O)Cc2cc(NC(=O)Nc3ccc4c(c3)OCO4)ccc2O[C@@H]1CN(C)Cc1ccc(-c2ccccc2)cc1,AC50,Paired box protein Pax-8,5.45 µM (active)
O=C1/C(=C/c2ccc(F)cc2)SC(=S)N1CC(=O)N1CCCCC1c1cccnc1 (stereo not drawn),EC50,Protein RecA,30.3 µM (active)
same,AC50,[5],13.1 µM (active)
COc1ccc(-c2cc(C(F)(F)F)nc(N3CCN(C)CC3)n2)cc1OC,EC50,[6],30.2 µM (active)
same,AC50,Cytochrome P450 2D6,28.2 µM (inconclusive)
same,EC50,[7],29.2 µM (active)
O=C(Nc1ccc2c(c1)OCCO2)c1cccc2nc3ccccc3nc12,EC50,[6],47 µM (active)
same,AC50,Cytochrome P450 2D6,8.91 µM (inconclusive)
same,EC50,[7],93.9 µM (active)
same,EC50,[9],> 60 µM (not active)
same,EC50,[10],2.09 µM (active)
same,AC50,[11],2.59 µM (active)
CC(NC(=O)C12CC3CC(CC(C3)C1)C2)C(=O)N/N=C/C1=C(N2CCOCC2)C(=C\c2ccccc2)/CC1 (stereo not drawn),EC50,[2],> 120 µM (not active)
same,EC50,[3],16.4 µM (active)
same,EC50,[4],15.7 µM (active)
COc1ccc(C(=O)NC2CCCc3c2cnn3-c2ccccc2F)o1 (stereo not drawn),EC50,[2],18.9 µM (active)
same,EC50,[3],22.2 µM (active)
same,EC50,[4],41 µM (active)
CC(=O)Nc1ccc(NC(=O)CSc2ncc(C(=O)Nc3ccccc3)c(=O)n2C)cc1,EC50,Protein RecA,0.043 µM (active)
same,AC50,[5],0.131 µM (active)
same,AC50,[11],5.28 µM (active)
CCOc1ccc(NC(=O)C(c2ccccn2)N(C(=O)CCl)c2ccc(F)cc2)cc1 (stereo not drawn),EC50,Protein RecA,2.67 µM (active)
same,AC50,[5],7.1 µM (active)
CC(=O)c1sc(NC(=O)CCS(=O)(=O)c2ccc(Cl)cc2)nc1C,AC50,Paired box protein Pax-8,5.01 µM (active)
COCCCn1c(-c2ccco2)nc2ccccc2c1=O,EC50,[1],> 195 µM (not active)
COc1cc(/C=N/NC(=O)CC2(C)OCCCO2)ccc1OCc1ccccc1,EC50,Protein RecA,0.81 µM (active)
same,AC50,[5],2.64 µM (active)
O=C(CCc1ccc(S(=O)(=O)NCc2ccccc2)cc1)NCc1ccco1,AC50,Paired box protein Pax-8,47.9 µM (active)
